The values below come from ChEMBL document CHEMBL3632549, “Targeting EGFR/HER2 tyrosine kinases with a new potent series of 6-substituted 4-anilinoquinazoline hybrids: Design, synthesis, kinase assay, cell-based assay, and molecular docking” (Bioorg Med Chem Lett, 2015).

Assay [1] deals with Epidermal growth factor receptor (Homo sapiens, UniProt P00533). The assay can be described thus: Inhibition of EGFR (unknown origin) after 120 mins by HotSpot assay.
For assay [2], the target named is Receptor tyrosine-protein kinase erbB-2 (Homo sapiens, UniProt P04626). As to the kind of experiment: Inhibition of HER2 (unknown origin) after 120 mins by HotSpot assay.
Chain of Receptor tyrosine-protein kinase erbB-2 (P04626 whole entry): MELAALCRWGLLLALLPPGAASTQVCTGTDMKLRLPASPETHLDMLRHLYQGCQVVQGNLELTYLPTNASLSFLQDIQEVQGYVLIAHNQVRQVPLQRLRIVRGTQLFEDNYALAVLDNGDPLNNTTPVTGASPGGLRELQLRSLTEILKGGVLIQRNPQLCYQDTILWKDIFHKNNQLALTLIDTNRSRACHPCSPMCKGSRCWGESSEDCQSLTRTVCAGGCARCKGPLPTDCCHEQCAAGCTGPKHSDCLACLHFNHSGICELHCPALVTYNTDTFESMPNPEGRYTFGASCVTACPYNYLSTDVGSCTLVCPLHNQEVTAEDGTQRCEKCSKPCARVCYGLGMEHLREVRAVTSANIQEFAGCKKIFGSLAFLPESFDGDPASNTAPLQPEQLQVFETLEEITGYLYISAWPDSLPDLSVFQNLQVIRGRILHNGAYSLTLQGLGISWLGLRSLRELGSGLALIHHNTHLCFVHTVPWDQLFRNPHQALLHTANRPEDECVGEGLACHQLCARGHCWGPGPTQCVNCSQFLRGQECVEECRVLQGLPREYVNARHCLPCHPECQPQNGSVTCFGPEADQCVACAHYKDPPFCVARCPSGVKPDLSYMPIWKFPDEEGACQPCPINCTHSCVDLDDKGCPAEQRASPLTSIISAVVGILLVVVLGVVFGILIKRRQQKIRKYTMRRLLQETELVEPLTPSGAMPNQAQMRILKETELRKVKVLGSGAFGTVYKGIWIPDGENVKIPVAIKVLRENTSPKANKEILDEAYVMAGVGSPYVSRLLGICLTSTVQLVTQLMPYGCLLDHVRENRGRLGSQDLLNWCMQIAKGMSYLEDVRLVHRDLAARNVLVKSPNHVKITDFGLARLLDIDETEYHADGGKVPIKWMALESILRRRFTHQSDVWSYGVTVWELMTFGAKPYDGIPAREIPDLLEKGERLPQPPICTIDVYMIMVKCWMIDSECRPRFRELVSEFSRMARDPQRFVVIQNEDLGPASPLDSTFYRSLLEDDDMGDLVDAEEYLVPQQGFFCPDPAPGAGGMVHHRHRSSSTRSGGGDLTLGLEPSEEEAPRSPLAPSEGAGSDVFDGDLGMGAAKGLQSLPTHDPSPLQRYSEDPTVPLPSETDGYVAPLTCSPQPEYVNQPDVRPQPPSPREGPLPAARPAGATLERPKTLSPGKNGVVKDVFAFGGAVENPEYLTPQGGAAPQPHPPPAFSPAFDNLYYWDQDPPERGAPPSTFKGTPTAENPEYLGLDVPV
Another assay relates to BT-474. The assay can be described thus: Cytotoxicity against human BT474 cells expressing HER2 after 72 hrs by Cell Titer Glo assay. Type of assay: functional. To be noted: BT-474, 72 h.
Assay [3] concerns the target Vascular endothelial growth factor receptor 2 (Homo sapiens, UniProt P35968). As to the kind of experiment: Inhibition of VEGFR2 (unknown origin) after 120 mins by HotSpot assay.
The target of assay [4] is Hepatocyte growth factor receptor (Homo sapiens, UniProt P08581). As to the kind of experiment: Inhibition of c-MET (unknown origin) after 120 mins by HotSpot assay.
Chain of Hepatocyte growth factor receptor (P08581 whole entry): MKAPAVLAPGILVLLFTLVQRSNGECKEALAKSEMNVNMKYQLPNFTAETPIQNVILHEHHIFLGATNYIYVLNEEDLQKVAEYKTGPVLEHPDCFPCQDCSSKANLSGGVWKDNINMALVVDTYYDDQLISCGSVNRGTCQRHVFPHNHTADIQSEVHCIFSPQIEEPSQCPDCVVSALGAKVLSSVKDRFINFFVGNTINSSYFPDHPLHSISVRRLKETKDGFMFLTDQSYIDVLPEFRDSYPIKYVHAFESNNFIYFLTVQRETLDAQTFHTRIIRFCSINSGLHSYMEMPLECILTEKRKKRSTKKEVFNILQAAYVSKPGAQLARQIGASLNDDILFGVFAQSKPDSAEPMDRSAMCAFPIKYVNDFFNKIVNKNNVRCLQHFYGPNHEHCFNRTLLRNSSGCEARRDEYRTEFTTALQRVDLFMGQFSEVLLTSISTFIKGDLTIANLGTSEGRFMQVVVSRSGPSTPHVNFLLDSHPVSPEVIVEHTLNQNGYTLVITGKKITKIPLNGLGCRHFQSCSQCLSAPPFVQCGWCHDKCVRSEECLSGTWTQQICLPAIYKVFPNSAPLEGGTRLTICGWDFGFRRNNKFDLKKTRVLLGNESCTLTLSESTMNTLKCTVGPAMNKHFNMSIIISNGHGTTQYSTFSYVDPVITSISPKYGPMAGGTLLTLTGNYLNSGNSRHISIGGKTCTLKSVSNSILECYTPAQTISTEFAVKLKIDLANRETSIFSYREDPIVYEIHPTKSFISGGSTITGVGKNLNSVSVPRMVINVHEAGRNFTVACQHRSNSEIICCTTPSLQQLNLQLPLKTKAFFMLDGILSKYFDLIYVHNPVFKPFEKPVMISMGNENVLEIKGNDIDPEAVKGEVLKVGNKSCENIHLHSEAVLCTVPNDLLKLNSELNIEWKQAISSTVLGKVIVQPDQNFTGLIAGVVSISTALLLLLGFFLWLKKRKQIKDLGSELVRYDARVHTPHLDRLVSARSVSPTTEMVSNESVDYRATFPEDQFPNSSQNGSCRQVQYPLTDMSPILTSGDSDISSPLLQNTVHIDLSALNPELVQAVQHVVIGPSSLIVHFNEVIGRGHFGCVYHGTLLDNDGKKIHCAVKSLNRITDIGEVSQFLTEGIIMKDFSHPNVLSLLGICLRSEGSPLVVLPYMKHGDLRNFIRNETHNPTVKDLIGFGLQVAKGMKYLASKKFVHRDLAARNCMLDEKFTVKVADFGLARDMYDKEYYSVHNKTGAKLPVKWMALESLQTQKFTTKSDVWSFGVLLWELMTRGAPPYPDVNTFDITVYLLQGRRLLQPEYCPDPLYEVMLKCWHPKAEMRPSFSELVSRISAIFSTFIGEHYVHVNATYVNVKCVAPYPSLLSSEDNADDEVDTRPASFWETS
The target in assay [5] is Tyrosine-protein kinase Lck (Homo sapiens, UniProt P06239). The assay can be described thus: Inhibition of LCK (unknown origin) after 120 mins by HotSpot assay.
Chain of Tyrosine-protein kinase Lck (P06239 whole entry): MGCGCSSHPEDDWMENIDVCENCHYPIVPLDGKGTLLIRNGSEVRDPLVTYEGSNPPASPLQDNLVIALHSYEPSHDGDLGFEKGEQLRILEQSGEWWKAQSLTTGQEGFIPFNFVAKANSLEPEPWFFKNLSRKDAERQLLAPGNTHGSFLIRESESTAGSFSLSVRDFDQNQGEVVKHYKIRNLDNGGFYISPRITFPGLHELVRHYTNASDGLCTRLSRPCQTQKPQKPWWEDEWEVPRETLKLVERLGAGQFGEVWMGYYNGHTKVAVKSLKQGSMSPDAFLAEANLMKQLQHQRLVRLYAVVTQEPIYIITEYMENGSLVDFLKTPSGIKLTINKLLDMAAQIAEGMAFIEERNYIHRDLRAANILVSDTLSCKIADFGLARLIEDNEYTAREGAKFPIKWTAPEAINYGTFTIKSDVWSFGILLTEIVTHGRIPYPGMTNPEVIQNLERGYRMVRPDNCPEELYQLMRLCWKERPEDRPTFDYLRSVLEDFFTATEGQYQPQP
Assay [6] concerns the target Fibroblast growth factor receptor 1 (Homo sapiens, UniProt P11362). As to the kind of experiment: Inhibition of FGFR1 (unknown origin) after 120 mins by HotSpot assay.
The target in assay [7] is MAP kinase-activated protein kinase 2 (Homo sapiens, UniProt P49137). As to the kind of experiment: Inhibition of MAPKAPK2 (unknown origin) after 120 mins by HotSpot assay.
Chain of MAP kinase-activated protein kinase 2 (P49137 whole entry): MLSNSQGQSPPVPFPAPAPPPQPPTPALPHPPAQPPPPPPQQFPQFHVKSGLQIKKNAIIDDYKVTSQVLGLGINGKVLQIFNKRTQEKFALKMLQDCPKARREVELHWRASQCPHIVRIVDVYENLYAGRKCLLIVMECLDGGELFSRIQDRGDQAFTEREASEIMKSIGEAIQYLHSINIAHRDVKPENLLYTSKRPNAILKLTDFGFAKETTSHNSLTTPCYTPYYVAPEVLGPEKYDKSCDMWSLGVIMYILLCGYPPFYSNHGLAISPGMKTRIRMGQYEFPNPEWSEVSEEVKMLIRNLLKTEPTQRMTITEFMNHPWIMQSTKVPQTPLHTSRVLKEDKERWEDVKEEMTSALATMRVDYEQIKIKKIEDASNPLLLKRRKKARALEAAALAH
A short description of assay [8]: Cytotoxicity against human L-132 cells after 48 hrs by MTT assay. To be noted: L132, 48 h. Type of assay: cell-based. On the technique in general: Formazan colour is commonly taken as a measure of viable cells.
The target of another assay is Focal adhesion kinase 1 (Homo sapiens, UniProt Q05397). The assay can be described thus: Inhibition of FAK (unknown origin) after 120 mins by HotSpot assay.
In assay [9] the target is Cyclin-dependent kinase 2 (Homo sapiens, UniProt P24941). As to the kind of experiment: Inhibition of CDK2 (unknown origin) after 120 mins by HotSpot assay.
In assay [10] the target is Mitogen-activated protein kinase 14 (Homo sapiens, UniProt Q16539). As to the kind of experiment: Inhibition of P38a (unknown origin) after 120 mins by HotSpot assay.
For assay [11], the target named is Insulin-like growth factor 1 receptor (Homo sapiens, UniProt P08069). The assay can be described thus: Inhibition of IGF1R (unknown origin) after 120 mins by HotSpot assay.

A value given as a limit tells only on which side of the number the result lay.

One may read the IC50 as the midpoint of a concentration-inhibition curve. Read a high IC50 as lower potency. In general, GI50 refers to the concentration giving 50% growth inhibition. Higher therefore signals lower sensitivity of the cells.

Chain of Epidermal growth factor receptor (P00533 whole entry): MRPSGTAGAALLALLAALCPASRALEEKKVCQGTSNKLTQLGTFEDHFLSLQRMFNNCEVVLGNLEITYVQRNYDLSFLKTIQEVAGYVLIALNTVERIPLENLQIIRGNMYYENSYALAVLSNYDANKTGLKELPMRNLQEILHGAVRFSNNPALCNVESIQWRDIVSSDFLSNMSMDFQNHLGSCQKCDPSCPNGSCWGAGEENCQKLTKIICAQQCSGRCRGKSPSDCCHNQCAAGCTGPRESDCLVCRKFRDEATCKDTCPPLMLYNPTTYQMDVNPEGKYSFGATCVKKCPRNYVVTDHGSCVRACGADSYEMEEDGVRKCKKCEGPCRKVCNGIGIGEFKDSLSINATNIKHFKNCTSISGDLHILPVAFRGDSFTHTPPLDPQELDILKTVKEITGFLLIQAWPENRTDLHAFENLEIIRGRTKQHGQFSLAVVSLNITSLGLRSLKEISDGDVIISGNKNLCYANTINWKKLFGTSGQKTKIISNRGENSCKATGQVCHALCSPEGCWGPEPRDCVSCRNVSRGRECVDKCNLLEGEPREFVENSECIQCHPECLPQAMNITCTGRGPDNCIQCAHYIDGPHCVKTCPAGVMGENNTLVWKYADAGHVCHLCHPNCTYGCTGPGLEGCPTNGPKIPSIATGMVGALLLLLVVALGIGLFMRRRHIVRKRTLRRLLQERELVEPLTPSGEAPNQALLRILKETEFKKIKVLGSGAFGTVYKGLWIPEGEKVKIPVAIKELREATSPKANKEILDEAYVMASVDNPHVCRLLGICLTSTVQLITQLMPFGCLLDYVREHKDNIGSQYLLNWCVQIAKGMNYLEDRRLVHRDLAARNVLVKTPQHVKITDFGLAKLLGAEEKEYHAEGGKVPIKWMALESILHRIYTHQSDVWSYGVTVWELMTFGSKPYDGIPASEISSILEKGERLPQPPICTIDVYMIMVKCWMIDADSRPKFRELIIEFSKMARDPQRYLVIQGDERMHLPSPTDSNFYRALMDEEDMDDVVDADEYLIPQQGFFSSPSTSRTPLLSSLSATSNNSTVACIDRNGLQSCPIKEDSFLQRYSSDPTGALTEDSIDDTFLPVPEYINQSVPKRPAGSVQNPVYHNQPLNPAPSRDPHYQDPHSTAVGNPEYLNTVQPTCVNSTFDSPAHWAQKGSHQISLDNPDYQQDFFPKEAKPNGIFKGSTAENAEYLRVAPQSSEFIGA

Take `CCOC(=O)C(=CNc1ccc2ncnc(Nc3ccc(OCc4ccccn4)c(Cl)c3)c2c1)C(=O)OCC`: the values for the IC50 in assay [1] and in assay [2] were 1020 nM and 3290 nM, respectively.

Regarding `NC(=O)Nc1ccc2ncnc(Nc3ccc(Oc4cccc(C(F)(F)F)c4)c(Cl)c3)c2c1`, the 50% inhibitory concentration (IC50) stood at 4 nM in [1] and 77 nM in assay [2]. The molecule also yielded a GI50 with BT-474 of over 10000 nM.

With `NC(=O)Nc1ccc2ncnc(Nc3ccc(Oc4ccc(Cl)c(Cl)c4)c(Cl)c3)c2c1`, the half-maximal inhibitory concentration (IC50) in [1] is 543 nM; in assay [2], 706 nM. Further, in the assay on BT-474, halving of growth (GI50) required 2380 nM.

In the case of `NC(=O)Nc1ccc2ncnc(Nc3ccc(OCc4cccc(F)c4)c(Cl)c3)c2c1`, the IC50 worked out at 99 nM in assay [1] and 287 nM in assay [2]. For the same molecule, the concentration for 50% growth inhibition (GI50) in the assay with BT-474 was found to be 4720 nM.

Regarding `CC(=O)Nc1ccc2ncnc(Nc3ccc(OCc4ccccn4)c(Cl)c3)c2c1`, the concentration for half-maximal inhibition (IC50) entry in assay [3] is “Not Active”; in assay [4], “Not Active”; in [5], 1220 nM; in [6], “Not Active”; in assay [7], “Not Active”; in assay [8] it was over 100000 nM. Besides, the half-maximal inhibitory concentration (IC50) result is “Not Active” against Focal adhesion kinase 1; “Not Active” in assay [9]; “Not Active” in assay [10]; “Not Active” in assay [11]; 3 nM in assay [1]; 16 nM in assay [2]. For the same molecule, growth in the assay with BT-474 was halved (GI50) at 2700 nM.

Take `CCNC(=O)Nc1ccc2ncnc(Nc3ccc(Oc4cccc(C(F)(F)F)c4)c(Cl)c3)c2c1`: the IC50 in assay [1] was found to be 29 nM; in [2], 625 nM. The molecule further registered a GI50 with BT-474 of 3550 nM.

Consider `CCNC(=O)Nc1ccc2ncnc(Nc3ccc(Oc4ccc(Cl)c(Cl)c4)c(Cl)c3)c2c1`, for which the IC50 in assay [1] and in assay [2] was over 10000 nM in each case. This molecule registered a concentration for 50% growth inhibition (GI50) in the assay with BT-474 of over 10000 nM.

`CCNC(=O)Nc1ccc2ncnc(Nc3ccc(OCc4cccc(F)c4)c(Cl)c3)c2c1`: the 50% inhibitory concentration (IC50) was over 100000 nM in [8], 35 nM in assay [1] and 126 nM in [2]. Besides, the 50% growth inhibitory concentration (GI50) in the assay on BT-474 stood at 1820 nM.

Regarding `CCNC(=O)Nc1ccc2ncnc(Nc3ccc(OCc4ccccn4)c(Cl)c3)c2c1`, the half-inhibitory concentration (IC50) in [8] was over 100000 nM; in [1], 227 nM; in assay [2] it was 1390 nM. In the assay on BT-474, the concentration for 50% growth inhibition (GI50) is 1950 nM.

Regarding `CCOC(=O)C(=CNc1ccc2ncnc(Nc3ccc(Oc4cccc(C(F)(F)F)c4)c(Cl)c3)c2c1)C(=O)OCC`, the IC50 in [1] is 23 nM; in assay [2] it was 1000 nM.

Take `CCOC(=O)C(=CNc1ccc2ncnc(Nc3ccc(Oc4ccc(Cl)c(Cl)c4)c(Cl)c3)c2c1)C(=O)OCC`: the half-inhibitory concentration (IC50) in assay [1] and in [2] was over 10000 nM in each case.

Consider `CCOC(=O)C(=CNc1ccc2ncnc(Nc3ccc(OCc4cccc(F)c4)c(Cl)c3)c2c1)C(=O)OCC`, for which the IC50 in [1] was determined as 812 nM; in assay [2], 5050 nM.

With `N#CC(C#N)=CNc1ccc2ncnc(Nc3ccc(Oc4ccc(Cl)c(Cl)c4)c(Cl)c3)c2c1`, the half-maximal inhibitory concentration (IC50) in assay [1] and in assay [2] was over 10000 nM in each case.

Regarding `N#CC(C#N)=CNc1ccc2ncnc(Nc3ccc(OCc4cccc(F)c4)c(Cl)c3)c2c1`, the IC50 in [1] worked out at 445 nM; in [2], 2720 nM.

On to `N#CC(C#N)=CNc1ccc2ncnc(Nc3ccc(OCc4ccccn4)c(Cl)c3)c2c1`, for which the concentration for half-maximal inhibition (IC50) came out at 3050 nM in [1] and 8000 nM in assay [2].

Consider `NC(=O)Nc1ccc(C(=O)Nc2ccc3ncnc(Nc4ccc(F)c(Cl)c4)c3c2)cc1`, for which the half-inhibitory concentration (IC50) in [1] came out at 9 nM; in assay [2], 275 nM.

Turning to `CCNC(=O)Nc1ccc(C(=O)Nc2ccc3ncnc(Nc4ccc(F)c(Cl)c4)c3c2)cc1`, the half-maximal inhibitory concentration (IC50) in [1] was 31 nM; in [2], 855 nM.

For the molecule `CCOC(=O)C(=CNC(=O)Nc1ccc(C(=O)Nc2ccc3ncnc(Nc4ccc(F)c(Cl)c4)c3c2)cc1)C(=O)OCC`, the values for the concentration for half-maximal inhibition (IC50) in assay [1] and in assay [2] were 1460 nM and over 10000 nM, respectively.

In the assay on BT-474, `CS(=O)(=O)CCNCc1ccc(-c2ccc3ncnc(Nc4ccc(OCc5cccc(F)c5)c(Cl)c4)c3c2)o1` [LAPATINIB] came in with a GI50 of 930 nM.
